Patent publication US9439432B2, “Phenylisoxazoline-based compound having herbicidal activity and use thereof” (MOGHU RESEARCH CENTER LTD, priority 2011, dated 2016)

What follows are compounds tested on Echinochloa crusgalli (assay: Pre-emergence treatment, herbicidal efficacy on barnyardgrass). Conditions: 62.5 g/ha, 4 weeks after spraying, scale 0 to 10.
Assay type: in vivo
Experimental: (§1) A rectangular plastic pot having a surface area of 300 cm^2 was filled with sandy loam soil and mixed bed soil which were mixed at a ratio of 1:1, and then, barnyardrass (Echinochloa crusgalli), large crabgrass (Digitaria sanguinalis), blackgrass (Alopecurus myosuroides), and annual bluegrass (Poa annua), which are grass weeds, were seeded thereto. In a pot that was prepared as described above, seeds of corn, soybean, cotton, wheat, and rice were seeded. The pots were irrigated, and one day after, chemicals were sprayed thereto. The spraying was performed by using a track sprayer (R&D Sprayer, USA) equipped with a Teejet 8002 (Spraying Systems Co., USA) nozzle, and a spraying amount was adjusted at 300 L/ha. A spraying solution was prepared by dissolving test materials or references in acetone and adding the same amount of 0.2%(v/v) tween 20 aqueous solution thereto. Application rates were 500, 250, 125, and 62.5 g/ha. The pots were placed in a greenhouse in which during day, the temperature was maintained at a temperature of 25 to 30° C., and during night, the temperature was maintained at a temperature of 15 to 25° C., and the pots were periodically irrigated. Four weeks after the spraying the test materials or References, effects and phytotoxicity of the respective weeds and crops were evaluated in a scale of 0 to 10 (0: no effects, 10: complete death), and results thereof are shown in Table 4 below.

SMILES | Herbicidal efficacy, Echinochloa crusgalli
Cc1ccc(C2=NOC(C)(COCc3c(F)cccc3F)C2)cc1 (stereo not drawn) [Reference G] | 0

Same assay, conditions: 125 g/ha, 4 weeks after spraying, scale 0 to 10

SMILES | Herbicidal efficacy, Echinochloa crusgalli
Cc1ccc(C2=NOC(C)(COCc3c(F)cccc3F)C2)cc1 (stereo not drawn) [Reference G] | 3

Same assay, conditions: 250 g/ha, 4 weeks after spraying, scale 0 to 10

SMILES | Herbicidal efficacy, Echinochloa crusgalli
Cc1ccc(C2=NOC(C)(COCc3c(F)cccc3F)C2)cc1 (stereo not drawn) [Reference G] | 7

Same assay, conditions: 500 g/ha, 4 weeks after spraying, scale 0 to 10 (0: no effects, 10: complete death)

SMILES | Herbicidal efficacy, Echinochloa crusgalli
Cc1ccc(C2=NOC(C)(COCc3c(F)cccc3F)C2)cc1 (stereo not drawn) [Reference G] | 10

Each compound was assayed on Soybean (assay: Pre-emergence treatment, phytotoxicity to soybean). Conditions: 500 g/ha, 4 weeks after spraying, scale 0 to 10 (0: no effects, 10: complete death).
Assay type: in vivo
Experimental: as §1

SMILES | Phytotoxicity, Soybean
Cc1ccc(C2=NOC(C)(COCc3c(F)cccc3F)C2)cc1 (stereo not drawn) [Reference G] | 0

What follows are compounds tested on Cotton (assay: Post-emergence treatment, phytotoxicity to cotton). Conditions: post-emergence (about 3 leaf stage), 1,000 g/ha, 4 weeks after spraying, scale 0 to 10 (0: no effects, 10: complete death).
Assay type: in vivo
Experimental: as §1
(§2) Pots containing crops and weeds were prepared in the same manner as in Example 7, and then, in the second week in which crops and weeds entered into about 3 leaf stage, the test materials and the references were sprayed thereto in the same manner as described above. The rates were 1,000, 500, 250, and 125 g/ha. Four weeks after the spraying of the test materials or the references, herbicidal efficacy and phytotoxicity to the respective weeds and crops were evaluated in a scale of 0 to 10 (0: no effects, 10: complete death).

SMILES | Phytotoxicity, Cotton
Cc1ccc(C2=NOC(C)(COCc3c(F)cccc3F)C2)cc1 (stereo not drawn) [Reference G] | 0

These compounds were tested on Corn (assay: Pre-emergence treatment, phytotoxicity to corn). Conditions: 500 g/ha, 4 weeks after spraying, scale 0 to 10 (0: no effects, 10: complete death).
Assay type: in vivo
Experimental: as §1

SMILES | Phytotoxicity, Corn
Cc1ccc(C2=NOC(C)(COCc3c(F)cccc3F)C2)cc1 (stereo not drawn) [Reference G] | 0

Each compound was assayed on Soybean (assay: Post-emergence treatment, phytotoxicity to soybean). Conditions: post-emergence (about 3 leaf stage), 1,000 g/ha, 4 weeks after spraying, scale 0 to 10 (0: no effects, 10: complete death).
Assay type: in vivo
Experimental: as §1, §2

SMILES | Phytotoxicity, Soybean
Cc1ccc(C2=NOC(C)(COCc3c(F)cccc3F)C2)cc1 (stereo not drawn) [Reference G] | 2

What follows are compounds tested on Wheat (assay: Pre-emergence treatment, phytotoxicity to wheat). Conditions: 500 g/ha, 4 weeks after spraying, scale 0 to 10 (0: no effects, 10: complete death).
Assay type: in vivo
Experimental: as §1

SMILES | Phytotoxicity, Wheat
Cc1ccc(C2=NOC(C)(COCc3c(F)cccc3F)C2)cc1 (stereo not drawn) [Reference G] | 0

These compounds were tested on Echinochloa crusgalli (assay: Post-emergence treatment, herbicidal efficacy on barnyardgrass). Conditions: post-emergence, 125 g/ha, 4 weeks after spraying, scale 0 to 10.
Assay type: in vivo
Experimental: as §1, §2

SMILES | Herbicidal efficacy, Echinochloa crusgalli
Cc1ccc(C2=NOC(C)(COCc3c(F)cccc3F)C2)cc1 (stereo not drawn) [Reference G] | 0

Same assay, conditions: post-emergence, 250 g/ha, 4 weeks after spraying, scale 0 to 10

SMILES | Herbicidal efficacy, Echinochloa crusgalli
Cc1ccc(C2=NOC(C)(COCc3c(F)cccc3F)C2)cc1 (stereo not drawn) [Reference G] | 2

Same assay, conditions: post-emergence, 500 g/ha, 4 weeks after spraying, scale 0 to 10

SMILES | Herbicidal efficacy, Echinochloa crusgalli
Cc1ccc(C2=NOC(C)(COCc3c(F)cccc3F)C2)cc1 (stereo not drawn) [Reference G] | 5

Same assay, conditions: post-emergence, 1,000 g/ha, 4 weeks after spraying, scale 0 to 10

SMILES | Herbicidal efficacy, Echinochloa crusgalli
Cc1ccc(C2=NOC(C)(COCc3c(F)cccc3F)C2)cc1 (stereo not drawn) [Reference G] | 6

What follows are compounds tested on Digitaria sanguinalis (assay: Pre-emergence treatment, herbicidal efficacy on large crabgrass). Conditions: 62.5 g/ha, 4 weeks after spraying, scale 0 to 10.
Assay type: in vivo
Experimental: as §1

SMILES | Herbicidal efficacy, Digitaria sanguinalis
Cc1ccc(C2=NOC(C)(COCc3c(F)cccc3F)C2)cc1 (stereo not drawn) [Reference G] | 1

Same assay, conditions: 125 g/ha, 4 weeks after spraying, scale 0 to 10

SMILES | Herbicidal efficacy, Digitaria sanguinalis
Cc1ccc(C2=NOC(C)(COCc3c(F)cccc3F)C2)cc1 (stereo not drawn) [Reference G] | 4

Same assay, conditions: 250 g/ha, 4 weeks after spraying, scale 0 to 10

SMILES | Herbicidal efficacy, Digitaria sanguinalis
Cc1ccc(C2=NOC(C)(COCc3c(F)cccc3F)C2)cc1 (stereo not drawn) [Reference G] | 8

Same assay, conditions: 500 g/ha, 4 weeks after spraying, scale 0 to 10

SMILES | Herbicidal efficacy, Digitaria sanguinalis
Cc1ccc(C2=NOC(C)(COCc3c(F)cccc3F)C2)cc1 (stereo not drawn) [Reference G] | 10

Each compound was assayed on Poa annua (assay: Post-emergence treatment, herbicidal efficacy on annual bluegrass). Conditions: post-emergence, 125 g/ha, 4 weeks after spraying, scale 0 to 10.
Assay type: in vivo
Experimental: as §1, §2

SMILES | Herbicidal efficacy, Poa annua
Cc1ccc(C2=NOC(C)(COCc3c(F)cccc3F)C2)cc1 (stereo not drawn) [Reference G] | 0

Same assay, conditions: post-emergence, 250 g/ha, 4 weeks after spraying, scale 0 to 10

SMILES | Herbicidal efficacy, Poa annua
Cc1ccc(C2=NOC(C)(COCc3c(F)cccc3F)C2)cc1 (stereo not drawn) [Reference G] | 1

Same assay, conditions: post-emergence, 500 g/ha, 4 weeks after spraying, scale 0 to 10

SMILES | Herbicidal efficacy, Poa annua
Cc1ccc(C2=NOC(C)(COCc3c(F)cccc3F)C2)cc1 (stereo not drawn) [Reference G] | 4

Same assay, conditions: post-emergence, 1,000 g/ha, 4 weeks after spraying, scale 0 to 10

SMILES | Herbicidal efficacy, Poa annua
Cc1ccc(C2=NOC(C)(COCc3c(F)cccc3F)C2)cc1 (stereo not drawn) [Reference G] | 6

The compounds below were run on Digitaria sanguinalis (assay: Post-emergence treatment, herbicidal efficacy on large crabgrass). Conditions: post-emergence, 125 g/ha, 4 weeks after spraying, scale 0 to 10.
Assay type: in vivo
Experimental: as §1, §2

SMILES | Herbicidal efficacy, Digitaria sanguinalis
Cc1ccc(C2=NOC(C)(COCc3c(F)cccc3F)C2)cc1 (stereo not drawn) [Reference G] | 0

Same assay, conditions: post-emergence, 250 g/ha, 4 weeks after spraying, scale 0 to 10

SMILES | Herbicidal efficacy, Digitaria sanguinalis
Cc1ccc(C2=NOC(C)(COCc3c(F)cccc3F)C2)cc1 (stereo not drawn) [Reference G] | 0

Same assay, conditions: post-emergence, 500 g/ha, 4 weeks after spraying, scale 0 to 10

SMILES | Herbicidal efficacy, Digitaria sanguinalis
Cc1ccc(C2=NOC(C)(COCc3c(F)cccc3F)C2)cc1 (stereo not drawn) [Reference G] | 4

Same assay, conditions: post-emergence, 1,000 g/ha, 4 weeks after spraying, scale 0 to 10

SMILES | Herbicidal efficacy, Digitaria sanguinalis
Cc1ccc(C2=NOC(C)(COCc3c(F)cccc3F)C2)cc1 (stereo not drawn) [Reference G] | 6

The compounds below were run on Cotton (assay: Pre-emergence treatment, phytotoxicity to cotton). Conditions: 500 g/ha, 4 weeks after spraying, scale 0 to 10 (0: no effects, 10: complete death).
Assay type: in vivo
Experimental: as §1

SMILES | Phytotoxicity, Cotton
Cc1ccc(C2=NOC(C)(COCc3c(F)cccc3F)C2)cc1 (stereo not drawn) [Reference G] | 0

The compounds below were run on Alopecurus myosuroides (assay: Post-emergence treatment, herbicidal efficacy on blackgrass). Conditions: post-emergence, 125 g/ha, 4 weeks after spraying, scale 0 to 10.
Assay type: in vivo
Experimental: as §1, §2

SMILES | Herbicidal efficacy, Alopecurus myosuroides
Cc1ccc(C2=NOC(C)(COCc3c(F)cccc3F)C2)cc1 (stereo not drawn) [Reference G] | 0

Same assay, conditions: post-emergence, 250 g/ha, 4 weeks after spraying, scale 0 to 10

SMILES | Herbicidal efficacy, Alopecurus myosuroides
Cc1ccc(C2=NOC(C)(COCc3c(F)cccc3F)C2)cc1 (stereo not drawn) [Reference G] | 0

Same assay, conditions: post-emergence, 500 g/ha, 4 weeks after spraying, scale 0 to 10

SMILES | Herbicidal efficacy, Alopecurus myosuroides
Cc1ccc(C2=NOC(C)(COCc3c(F)cccc3F)C2)cc1 (stereo not drawn) [Reference G] | 2

Same assay, conditions: post-emergence, 1,000 g/ha, 4 weeks after spraying, scale 0 to 10

SMILES | Herbicidal efficacy, Alopecurus myosuroides
Cc1ccc(C2=NOC(C)(COCc3c(F)cccc3F)C2)cc1 (stereo not drawn) [Reference G] | 3

What follows are compounds tested on Corn (assay: Post-emergence treatment, phytotoxicity to corn). Conditions: post-emergence (about 3 leaf stage), 1,000 g/ha, 4 weeks after spraying, scale 0 to 10 (0: no effects, 10: complete death).
Assay type: in vivo
Experimental: as §1, §2

SMILES | Phytotoxicity, Corn
Cc1ccc(C2=NOC(C)(COCc3c(F)cccc3F)C2)cc1 (stereo not drawn) [Reference G] | 0

These compounds were tested on Rice (assay: Pre-emergence treatment, phytotoxicity to rice). Conditions: 500 g/ha, 4 weeks after spraying, scale 0 to 10 (0: no effects, 10: complete death).
Assay type: in vivo
Experimental: as §1

SMILES | Phytotoxicity, Rice
Cc1ccc(C2=NOC(C)(COCc3c(F)cccc3F)C2)cc1 (stereo not drawn) [Reference G] | 0

Each compound was assayed on Alopecurus myosuroides (assay: Pre-emergence treatment, herbicidal efficacy on blackgrass). Conditions: 62.5 g/ha, 4 weeks after spraying, scale 0 to 10.
Assay type: in vivo
Experimental: as §1

SMILES | Herbicidal efficacy, Alopecurus myosuroides
Cc1ccc(C2=NOC(C)(COCc3c(F)cccc3F)C2)cc1 (stereo not drawn) [Reference G] | 0

Same assay, conditions: 125 g/ha, 4 weeks after spraying, scale 0 to 10

SMILES | Herbicidal efficacy, Alopecurus myosuroides
Cc1ccc(C2=NOC(C)(COCc3c(F)cccc3F)C2)cc1 (stereo not drawn) [Reference G] | 0

Same assay, conditions: 250 g/ha, 4 weeks after spraying, scale 0 to 10

SMILES | Herbicidal efficacy, Alopecurus myosuroides
Cc1ccc(C2=NOC(C)(COCc3c(F)cccc3F)C2)cc1 (stereo not drawn) [Reference G] | 0

Same assay, conditions: 500 g/ha, 4 weeks after spraying, scale 0 to 10

SMILES | Herbicidal efficacy, Alopecurus myosuroides
Cc1ccc(C2=NOC(C)(COCc3c(F)cccc3F)C2)cc1 (stereo not drawn) [Reference G] | 3

What follows are compounds tested on Rice (assay: Post-emergence treatment, phytotoxicity to rice). Conditions: post-emergence (about 3 leaf stage), 1,000 g/ha, 4 weeks after spraying, scale 0 to 10 (0: no effects, 10: complete death).
Assay type: in vivo
Experimental: as §1, §2

SMILES | Phytotoxicity, Rice
Cc1ccc(C2=NOC(C)(COCc3c(F)cccc3F)C2)cc1 (stereo not drawn) [Reference G] | 0

What follows are compounds tested on Wheat (assay: Post-emergence treatment, phytotoxicity to wheat). Conditions: post-emergence (about 3 leaf stage), 1,000 g/ha, 4 weeks after spraying, scale 0 to 10 (0: no effects, 10: complete death).
Assay type: in vivo
Experimental: as §1, §2

SMILES | Phytotoxicity, Wheat
Cc1ccc(C2=NOC(C)(COCc3c(F)cccc3F)C2)cc1 (stereo not drawn) [Reference G] | 0

What follows are compounds tested on Poa annua (assay: Pre-emergence treatment, herbicidal efficacy on annual bluegrass). Conditions: 62.5 g/ha, 4 weeks after spraying, scale 0 to 10.
Assay type: in vivo
Experimental: as §1

SMILES | Herbicidal efficacy, Poa annua
Cc1ccc(C2=NOC(C)(COCc3c(F)cccc3F)C2)cc1 (stereo not drawn) [Reference G] | 1

Same assay, conditions: 125 g/ha, 4 weeks after spraying, scale 0 to 10

SMILES | Herbicidal efficacy, Poa annua
Cc1ccc(C2=NOC(C)(COCc3c(F)cccc3F)C2)cc1 (stereo not drawn) [Reference G] | 4

Same assay, conditions: 250 g/ha, 4 weeks after spraying, scale 0 to 10

SMILES | Herbicidal efficacy, Poa annua
Cc1ccc(C2=NOC(C)(COCc3c(F)cccc3F)C2)cc1 (stereo not drawn) [Reference G] | 8

Same assay, conditions: 500 g/ha, 4 weeks after spraying, scale 0 to 10

SMILES | Herbicidal efficacy, Poa annua
Cc1ccc(C2=NOC(C)(COCc3c(F)cccc3F)C2)cc1 (stereo not drawn) [Reference G] | 9
